The results in this text go back to US10858373B2, “Heterocyclic spiro compounds as MAGL inhibitors” (Pfizer Inc., priority 2017, dated 2020).

Like-named read-outs stand apart in the source and are kept apart here.

For assay [1], the target named is T1, human recombinant Monoacylglycerol Lipase (Homo sapiens (Human), UniProt Q99685). The experiment in a line: MAGL inactivation (enzyme progress curves, kinact/KI). The class given is biochemical. The settings on record: from plot of Kobs vs. compound concentration; T=0 min protocol; geometric mean of 2-4 determinations.
T1 sequence (Q99685 whole entry): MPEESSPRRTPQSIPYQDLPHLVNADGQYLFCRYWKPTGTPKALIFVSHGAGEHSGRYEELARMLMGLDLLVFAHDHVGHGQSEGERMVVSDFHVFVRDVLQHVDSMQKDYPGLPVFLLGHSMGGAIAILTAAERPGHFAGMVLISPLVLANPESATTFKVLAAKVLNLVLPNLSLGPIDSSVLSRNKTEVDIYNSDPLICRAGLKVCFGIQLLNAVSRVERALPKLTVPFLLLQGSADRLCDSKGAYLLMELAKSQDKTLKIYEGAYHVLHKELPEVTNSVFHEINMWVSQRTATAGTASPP
Assay [2] addresses T1, human recombinant Monoacylglycerol Lipase. The experiment in a line: MAGL Enzymatic Assay (fluorogenic substrate 7-HCA), IC50. Format: biochemical. The settings on record: geometric mean of 2-4 determinations unless otherwise indicated. The procedure:
An equal volume of 7-HCA in assay buffer with 10% DMSO was added either immediately (T=0 min) or after a 30 minute incubation (T=30 min) to initiate the reaction. […] After these dilutions, the final concentration of the test compound ranged from 3 μM to 0.03 nM. […] IC50 values were generated based on a four parameter fit model using ABASE software from IDBS.

As for `CN(C(=O)C(C)(C)C)C1COC2(CCN(C(=O)ON3C(=O)CCC3=O)CC2)C1` (stereo not drawn) [Example 51, N-(8-{[(2,5-dioxopyrrolidin-1-yl)oxy]carbonyl}-1-oxa-8-azaspiro[4.5]dec-3-yl)-N,2,2-trimethylpropanamide], the “MAGL Kinact/Kl” value in assay [1] is listed as 3290 1/s per M. Also, the IC50 was > 247 nM in assay [2] (substrate added after a 30 minute incubation (T=30 min), read-out: MAGL (T = 30 min) IC50) and > 692 nM in assay [2] (substrate added immediately (T=0 min), read-out: MAGL (T = 0 min) IC50).

What is called IC50 is the concentration at which inhibition is half-maximal.
